In the supplement of paper PMC11208160:

assay: recombinant UMI read abundance after kanamycin selection (control-corrected) (log10(CPM+1)); higher = more efficient recombination; extreme values may be limits of the assay; sequences stand for … in AGTGCAGAGAAAATCGGCCAGTTTTCTCTGCCTGCAGTCCGCATGCCGTGGGACCCCTTGGGTTCTAACCTGTTGCCTAGATTTATGCAGCGGACTGCCTTTCTCCCAAAGTGATAAACCGG…AGGTTGGTTTCACT; site = the 11-nt donor
Procedure, shortened: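 In Escherichia coli, a pool of donor and donor-binding-loop pairs, each with a 12-nt UMI, was tested for the IS621 bridge recombinase. Plating was on IPTG (0.07 mM) plus kanamycin, or without selection, in two replicates. Recombinant UMIs were amplified by PCR across the donor–target junction and sequenced, and counts were reported as log10(CPM+1) after averaging and control-derived scaling.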
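Note: IS621 bridge recombinase in Escherichia coli cells against a fixed T5 target plasmid.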

Row | Sequence | recombinant UMI read abundance (log10)
1 | GAGGAATCATGGACCGGTTTTCCCGGTAATCCGTATTTGCG (site CAGGAATCTCG) | 2.04
2 | GAGGAATCATGGACCGGTTTTCCCGGTAATCCGTATTTGCG (site GAGGAATCTCG) | 2.47
3 | GAGGAATCATGGACCGGTTTTCCCGGTAATCCGTATTTGCG (site TAGGAATCTCG) | 2.25
4 | GAGGACGCATGGACCGGTTTTCCCGGTAATCCGTATTTGAG (site GAGGACGCTCT) | 1.9
5 | GAGGAGACATGGACCGGTTTTCCCGGTAATCCGTATTTGCC (site GAGGAGACTGG) | 1.22
6 | GAGGCACCATGGACCGGTTTTCCCGGTAATCCGTATTTGCA (site GAGGCACCTTG) | 0.344
7 | GAGGCACCATGGACCGGTTTTCCCGGTAATCCGTATTTGCA (site GCGGCACCTTG) | 0
8 | GAGGCACCATGGACCGGTTTTCCCGGTAATCCGTATTTGCA (site GGGGCACCTTG) | 0
9 | GAGGCACCATGGACCGGTTTTCCCGGTAATCCGTATTTGCA (site GTGGCACCTTG) | 0
10 | GAGGCCTCATGGACCGGTTTTCCCGGTAATCCGTATTTGAG (site GAGGCCTCTCT) | 1.42
11 | GAGGTGGCATGGACCGGTTTTCCCGGTAATCCGTATTTGGC (site GAGGTGGCTGC) | 2.13
12 | GAGTACGCATGGACCGGTTTTCCCGGTAATCCGTATTTGAT (site GAGTACGCTAT) | 1.99
13 | GAGTAGTCATGGACCGGTTTTCCCGGTAATCCGTATTTGGA (site GAGTAGTCTTC) | 2.7
14 | GAGTCAGCATGGACCGGTTTTCCCGGTAATCCGTATTTGCC (site GAGTCAGCTGG) | 1.07
15 | GAGTTCACATGGACCGGTTTTCCCGGTAATCCGTATTTGAT (site GAGATCACTAT) | 0.00366
16 | GAGTTCACATGGACCGGTTTTCCCGGTAATCCGTATTTGAT (site GAGCTCACTAT) | 0.905
17 | GAGTTCACATGGACCGGTTTTCCCGGTAATCCGTATTTGAT (site GAGGTCACTAT) | 0
18 | GAGTTCACATGGACCGGTTTTCCCGGTAATCCGTATTTGAT (site GAGTTCACTAT) | 1.69
19 | GAGTTGTCATGGACCGGTTTTCCCGGTAATCCGTATTTGTT (site GAGTTGTCTAA) | 2.01

Row | Sequence | recombinant UMI read abundance (log10)
20 | GATAAACCATGGACCGGTTTTCCCGGTAATCCGTATTTGGT (site GAAAAACCTAC) | 0
21 | GATAAACCATGGACCGGTTTTCCCGGTAATCCGTATTTGGT (site GACAAACCTAC) | 0
22 | GATAAACCATGGACCGGTTTTCCCGGTAATCCGTATTTGGT (site GAGAAACCTAC) | 0
23 | GATAAACCATGGACCGGTTTTCCCGGTAATCCGTATTTGGT (site GATAAACCTAC) | 0
24 | GATAAAGCATGGACCGGTTTTCCCGGTAATCCGTATTTGGG (site GATAAAGCTCC) | 0.172
25 | GATACCACATGGACCGGTTTTCCCGGTAATCCGTATTTGCC (site GATACCACTGG) | 1.33
26 | GATACTGCATGGACCGGTTTTCCCGGTAATCCGTATTTGCC (site GATACTGCTGG) | 0.895
27 | GATACTGCATGGACCGGTTTTCCCGGTAATCCGTATTTGCC (site GCTACTGCTGG) | 0.748
28 | GATACTGCATGGACCGGTTTTCCCGGTAATCCGTATTTGCC (site GGTACTGCTGG) | 1.73
29 | GATACTGCATGGACCGGTTTTCCCGGTAATCCGTATTTGCC (site GTTACTGCTGG) | 1.4
30 | GATAGACCATGGACCGGTTTTCCCGGTAATCCGTATTTGGC (site GATAGACCTGC) | 0
31 | GATAGCACATGGACCGGTTTTCCCGGTAATCCGTATTTGCG (site GATAGCACTCG) | 0.578
32 | GATAGGACATGGACCGGTTTTCCCGGTAATCCGTATTTGAC (site GATAGGACTGT) | 2.34
33 | GATAGGACATGGACCGGTTTTCCCGGTAATCCGTATTTGAC (site GATCGGACTGT) | 0.114
34 | GATAGGACATGGACCGGTTTTCCCGGTAATCCGTATTTGAC (site GATGGGACTGT) | 0.531
35 | GATAGGACATGGACCGGTTTTCCCGGTAATCCGTATTTGAC (site GATTGGACTGT) | 0.386
36 | GATAGGACATGGACCGGTTTTCCCGGTAATCCGTATTTGTT (site GATAGGACTAA) | 1.43
37 | GATCATACATGGACCGGTTTTCCCGGTAATCCGTATTTGCT (site GATCATACTAG) | 1.82
38 | GATCCCGCATGGACCGGTTTTCCCGGTAATCCGTATTTGTC (site GATCCCGCTGA) | 0.846

Row | Sequence | recombinant UMI read abundance (log10)
39 | GATCCGGCATGGACCGGTTTTCCCGGTAATCCGTATTTGAT (site GATCCGGCTAT) | 0.0999
40 | GATGATCCATGGACCGGTTTTCCCGGTAATCCGTATTTGCT (site GATAATCCTAG) | 0
41 | GATGATCCATGGACCGGTTTTCCCGGTAATCCGTATTTGCT (site GATCATCCTAG) | 0
42 | GATGATCCATGGACCGGTTTTCCCGGTAATCCGTATTTGCT (site GATGATCCTAG) | 0
43 | GATGATCCATGGACCGGTTTTCCCGGTAATCCGTATTTGCT (site GATTATCCTAG) | 0
44 | GATGATTCATGGACCGGTTTTCCCGGTAATCCGTATTTGTT (site GAAGATTCTAA) | 0.433
45 | GATGATTCATGGACCGGTTTTCCCGGTAATCCGTATTTGTT (site GACGATTCTAA) | 0
46 | GATGATTCATGGACCGGTTTTCCCGGTAATCCGTATTTGTT (site GAGGATTCTAA) | 0
47 | GATGATTCATGGACCGGTTTTCCCGGTAATCCGTATTTGTT (site GATGATTCTAA) | 1.79
48 | GATGCCTCATGGACCGGTTTTCCCGGTAATCCGTATTTGTT (site GATGCCTCTAA) | 0.895
49 | GATGGCTCATGGACCGGTTTTCCCGGTAATCCGTATTTGCC (site GATGGCTCTGG) | 2.65
50 | GATGGTTCATGGACCGGTTTTCCCGGTAATCCGTATTTGAT (site GATGGTTCTAT) | 1.58
51 | GATGTGTCATGGACCGGTTTTCCCGGTAATCCGTATTTGAC (site AATGTGTCTGT) | 1.67
52 | GATGTGTCATGGACCGGTTTTCCCGGTAATCCGTATTTGAC (site CATGTGTCTGT) | 0.736
53 | GATGTGTCATGGACCGGTTTTCCCGGTAATCCGTATTTGAC (site GATGTGTCTGT) | 2.61
54 | GATGTGTCATGGACCGGTTTTCCCGGTAATCCGTATTTGAC (site TATGTGTCTGT) | 0.677
55 | GATTACCCATGGACCGGTTTTCCCGGTAATCCGTATTTGAG (site GATTACCCTCT) | 0.03
56 | GATTACCCATGGACCGGTTTTCCCGGTAATCCGTATTTGCT (site GATTAACCTAG) | 0
57 | GATTACCCATGGACCGGTTTTCCCGGTAATCCGTATTTGCT (site GATTACCCTAG) | 0
